Molecular target: T1, mAChR M1 (Homo sapiens, UniProt P11229)
T1 construct: expressed in transfected cells; host or cells: CHO-K1
T1 sequence (P11229 1-460): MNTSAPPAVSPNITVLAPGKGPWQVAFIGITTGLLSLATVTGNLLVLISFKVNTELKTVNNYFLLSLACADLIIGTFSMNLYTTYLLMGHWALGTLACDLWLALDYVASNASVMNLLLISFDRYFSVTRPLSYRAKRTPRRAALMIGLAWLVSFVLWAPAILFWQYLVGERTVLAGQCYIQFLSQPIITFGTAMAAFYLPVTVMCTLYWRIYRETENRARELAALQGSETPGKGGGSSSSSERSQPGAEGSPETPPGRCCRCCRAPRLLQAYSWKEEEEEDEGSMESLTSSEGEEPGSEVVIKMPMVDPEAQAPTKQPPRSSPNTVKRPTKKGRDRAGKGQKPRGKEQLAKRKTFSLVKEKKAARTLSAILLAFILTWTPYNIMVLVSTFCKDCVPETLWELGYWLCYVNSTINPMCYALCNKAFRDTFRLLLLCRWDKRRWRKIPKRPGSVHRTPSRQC
Experiment: mAChR M1 cell-based functional assay (calcium mobilization, potentiation of EC20 acetylcholine response in CHO-K1 cells)
Conditions: for Emax: CHO-K1, maximal response of curve fit or response at 30 μM test compound, as % of response to an about EC80 ACh concentration, read-out: Emax (% ACh maximum at 30 μM); for EC50: positive allosteric modulation of EC20 acetylcholine response, >10,000 estimated where no plateau in the curve
Excerpt: Chinese hamster ovary (CHO-K1) cells stably expressing rat (r)M1 were purchased from the American Type Culture Collection and cultured according to their indicated protocol. CHO cells stably expressing human (h)M2, hM3, and hM5 were described previously (Levey, A. I., et al., J. Neurosci. 1991, 11, 3218-3226.); hM1 and hM4 cDNAs were purchased from Missouri S&T cDNA Resource; rM4 cDNA was provided by T. I. Bonner (National Institutes of Health, Bethesda, Md.). rM2 and rM3 were cloned from a rat brain cDNA library and sequence verified. hM1, rM2, rM3, hM4, and rM4 cDNAs were used to stably transfect CHO-K1 cells purchased from the American Type Culture Collection using Lipofectamine-2000. To make stable rM2, hM2, hM4, and rM4 cell lines for use in calcium mobilization assays, these cells also were stably transfected with a chimeric G-protein (Gqi5) (provided by B. R. Conklin, University of California, San Francisco) using Lipofectamine 2000. rM1, hM1, rM3, hM3, rM5, and hM5 cells were grown in Ham's F-12 medium containing 10% heat-inactivated fetal bovine serum (FBS), 20 mM HEPES, and 50 μg/mL G418 sulfate. rM2-Gqi5, hM2Gqi5, and hM4Gqi5 cells were grown in the same medium also containing 500 μg/mL Hygromycin B. Stable rM4Gqi5 cells were grown in DMEM containing 10% heat-inactivated FBS, 20 mM HEPES, 400 μg/mL G418 sulfate, and 500 μg/mL Hygromycin B.
For high throughput measurement of agonist-evoked increases in intracellular calcium, CHO-K1 cells stably expressing muscarinic receptors were plated in growth medium lacking G418 and hygromycin at 15,000 cells/20 μL/well in Greiner 384-well black-walled, tissue culture (TC)-treated, clear-bottom plates (VWR). Cells were incubated overnight at 37° C. and 5% CO2. The next day, cells were washed using an ELX 405 (BioTek) with four washes (80 μL) of assay buffer then […], 20 μL of Fluo-4/acetoxymethyl ester (Invitrogen, Carlsbad, Calif.) prepared as a 2.3 mM stock in DMSO and mixed in a 1:1 ratio with 10% (w/v) Pluronic F-127 and diluted in assay buffer was added to the wells and the cell plates were incubated for […] at 37° C. and 5% CO2. Dye was removed by washing with the ELX 405 (four 80 μL washes of assay buffer) then aspirated to 20 μL. Compound master plates were formatted in an 11 point CRC format (1:3 dilutions) in 100% DMSO with a starting concentration of 10 mM using the BRAVO liquid handler (Agilent). Test compound CRCs were then transferred to daughter plates ([…]) using the Echo acoustic plate reformatter (Labcyte, Sunnyvale, Calif.) and then diluted into assay buffer (40 μL) to a 2× stock using a Thermo Fisher Combi (Thermo Fisher Scientific, Waltham, Mass.).
Calcium flux was measured using the Functional Drug Screening System (FDSS) 6000 (Hamamatsu Corporation, Tokyo, Japan) as an increase in the fluorescent static ratio. Compounds were applied to cells (20 μL, 2×) using the automated system of the FDSS 6000 at 4 s into the 300 s protocol and the data were collected at 1 Hz. At 144 s into the 300 s protocol, 10 μL of an EC20 concentration of the muscarinic receptor agonist acetylcholine was added (5×), followed by the addition of 12 μL an EC80 concentration of acetylcholine at the 230 s time point (5×). Agonist activity was analyzed as a concentration-dependent increase in calcium mobilization upon compound addition. Positive allosteric modulator activity was analyzed as a concentration-dependent increase in the EC20 acetylcholine response. Antagonist activity was analyzed as a concentration-dependent decrease in the EC80 acetylcholine response. Concentration-response curves were generated using a four-parameter logistical equation in XLFit curve fitting software (IDBS, Bridgewater, N.J.) for Excel (Microsoft, Redmond, Wash.) or Prism (GraphPad Software, Inc., San Diego, Calif.).
The calcium mobilization assay was also used to determine “efficacy”. […]

COc1cc2ccccc2n(Cc2ccc(-c3cnn(C)c3)cc2F)c1=O [Compound B1, 1-(2-fluoro-4-(1-methyl-1H-pyrazol-4-yl)benzyl)-3-methoxyquinolin-2(1H)-one]
Emax: 31% | EC50: 2.4 µM

Cn1cc(-c2ccc(Cn3cc(S(=O)(=O)CCNC(=O)c4ccno4)c4c(F)cc(F)cc43)c(F)c2)cn1 [Compound B2]
Emax: 27% | EC50: 2.8 µM

Cn1cc(-c2ccc(CN3C(=O)OCc4ccccc43)c(F)c2)cn1 [Compound B3, 1-(2-fluoro-4-(1-methyl-1H-pyrazol-4-yl)benzyl)-1H-benzo[d][1,3]oxazin-2(4H)-one]
Emax: 61% | EC50: 3.1 µM

Cn1cc(-c2ccc(Cn3cc(S(=O)(=O)CCNC(=O)c4cnccn4)c4c(F)cc(F)cc43)c(F)c2)cn1 [Compound B4, N-(2-((4,6-difluoro-1-(2-fluoro-4-(1-methyl-1H-pyrazol-4-yl)benzyl)-1H-indol-3-yl)sulfonyl)ethyl)pyrazine-2-carboxamide]
Emax: 52% | EC50: 3.4 µM

Cn1cc(-c2ccc(CN3Cc4ccccc4C3)c(F)c2)cn1 [Compound B5]
Emax: 38% | EC50: 3.5 µM

Cn1cc(-c2ccc(Cn3c(=O)ccc4ccccc43)c(F)c2)cn1 [Compound B6]
Emax: 45% | EC50: 3.6 µM

Cn1cc(-c2ccc(Cn3cc(S(C)(=O)=O)c4ccccc43)c(F)c2)cn1 [Compound B7]
Emax: 64% | EC50: 3.9 µM

Cc1cc(NC(=O)c2cn(Cc3ccc(-c4cnn(C)c4)cc3F)c3ccccc23)no1 [Compound B8]
Emax: 43% | EC50: 5 µM

Cn1cc(-c2ccc(Cn3cc(C(=O)Nc4cccnc4)c4ccccc43)c(F)c2)cn1 [Compound B9, 1-(2-fluoro-4-(1-methyl-1H-pyrazol-4-yl)benzyl)-N-(pyridin-3-yl)-1H-indole-3-carboxamide]
Emax: 50% | EC50: 5.4 µM

Cn1cc(-c2ccc(Cn3cc(S(=O)(=O)CCNC(=O)c4cccnn4)c4c(F)cc(F)cc43)c(F)c2)cn1 [Compound B10]
Emax: 36% | EC50: 5.6 µM

Cn1cc(-c2ccc(Cn3cc(S(=O)(=O)CCNC(=O)c4ccnnc4)c4c(F)cc(F)cc43)c(F)c2)cn1 [Compound B11]
Emax: 45% | EC50: 7.6 µM

Cn1cc(-c2ccc(Cn3cc(S(=O)(=O)CCNC(=O)c4ccn[nH]4)c4c(F)cc(F)cc43)c(F)c2)cn1 [Compound B12]
Emax: 31% | EC50: 8.1 µM

Cn1cc(-c2ccc(Cn3nc4ccccn4c3=O)c(F)c2)cn1 [Compound B13]
Emax: 29% | EC50: 9.4 µM

Cn1cc(-c2ccc(Cn3c(=O)sc4ccccc43)c(F)c2)cn1 [Compound B14]
Emax: 45% | EC50: > 10 µM

Cn1cc(-c2ccc(CNc3ccccc3S(C)(=O)=O)c(F)c2)cn1 [Compound B15]
Emax: 34% | EC50: > 10 µM

Cn1cc(-c2ccc(CN3C(=O)CSc4ccccc43)c(F)c2)cn1 [Compound B16, 4-(2-fluoro-4-(1-methyl-1H-pyrazol-4-yl)benzyl)-2H-benzo[b][1,4]thiazin-3(4H)-one]
Emax: 32% | EC50: > 10 µM

Cn1cc(-c2ccc(CNc3ccccc3[S+](C)[O-])c(F)c2)cn1 (stereo not shown) [Compound B17]
Emax: 39% | EC50: > 10 µM

Cn1cc(-c2ccc(CN3CC[S+]([O-])c4ccccc43)c(F)c2)cn1 (stereo not shown) [Compound B18]
Emax: 31% | EC50: > 10 µM

Cn1cc(-c2ccc(CN3C(=O)NCc4ccccc43)c(F)c2)cn1 [Compound B19]
Emax: 46% | EC50: > 10 µM

Cn1cc(-c2ccc(CN3C(=O)C[S+]([O-])c4ccccc43)c(F)c2)cn1 (stereo not shown) [Compound B20, 4-(2-fluoro-4-(1-methyl-1H-pyrazol-4-yl)benzyl)-2H-benzo[b][1,4]thiazin-3(4H)-one 1-oxide]
Emax: 41% | EC50: > 10 µM

Cn1cc(-c2ccc(CN3C(=O)CS(=O)(=O)c4ccccc43)c(F)c2)cn1 [Compound B21, 4-(2-fluoro-4-(1-methyl-1H-pyrazol-4-yl)benzyl)-2H-benzo[b][1,4]thiazin-3(4H)-one 1,1-dioxide]
Emax: 36% | EC50: > 10 µM

Cn1cc(-c2ccc(CN3C(=O)CCc4ccccc43)c(F)c2)cn1 [Compound B22]
Emax: 44% | EC50: > 10 µM

Cn1cc(-c2ccc(CN3C(=O)COc4ccccc43)c(F)c2)cn1 [Compound B23]
Emax: 44% | EC50: > 10 µM

Cn1cc(-c2ccc(CN3c4ccccc4CS3(=O)=O)c(F)c2)cn1 [Compound B24, 1-(2-fluoro-4-(1-methyl-1H-pyrazol-4-yl)benzyl)-1,3-dihydrobenzo[c]isothiazole 2,2-dioxide]
Emax: 39% | EC50: > 10 µM

Cn1cc(-c2ccc(CN3CC(C(=O)O)c4ccccc43)c(F)c2)cn1 (stereo not shown) [Compound B25]
Emax: 52% | EC50: > 10 µM

Cn1cc(-c2ccc(CN3Cc4ccccc4C3C(=O)O)c(F)c2)cn1 (stereo not shown) [Compound B26]
Emax: 61% | EC50: > 10 µM

Cn1cc(-c2ccc(Cn3cc(C(=O)O)c4ccccc43)c(F)c2)cn1 [Compound B27]
Emax: 48% | EC50: > 10 µM

Cn1cc(-c2ccc(Cn3cc(C(=O)NCCc4ccccn4)c4ccccc43)c(F)c2)cn1 [Compound B28]
Emax: 35% | EC50: > 10 µM

Cn1cc(-c2ccc(Cn3cc(S(=O)(=O)CCNC(=O)c4ccccn4)c4c(F)cc(F)cc43)c(F)c2)cn1 [Compound B29]
Emax: 34% | EC50: > 10 µM

Cn1cc(-c2ccc(Cn3cc(S(=O)(=O)CCNC(=O)c4cccc(F)c4)c4c(F)cc(F)cc43)c(F)c2)cn1 [Compound B30]
Emax: 35% | EC50: > 10 µM

Cn1cc(-c2ccc(Cn3cc(S(=O)(=O)CCNC(=O)c4ccncc4)c4c(F)cc(F)cc43)c(F)c2)cn1 [Compound B31]
Emax: 30% | EC50: > 10 µM

Cn1cc(-c2ccc(Cn3cc(S(=O)(=O)CCNC(=O)c4cocn4)c4c(F)cc(F)cc43)c(F)c2)cn1 [Compound B32]
Emax: 57% | EC50: > 10 µM

Source: patent publication US9012445B2, “Substituted 4-(1H-pyrazol-4-yl)benzyl analogues as positive allosteric modulators of mAChR M1 receptors” (Vanderbilt University, priority 2012, dated 2015)
